In US20240270776A1, “PALLADIUM VINYL AND BUTADIENYL COMPOUNDS AS CHEMOTHERAPEUTIC AGENTS” (UNIVERSITÀ CA' FOSCARI VENEZIA, priority 2021, published 2024):

How the values were obtained:
Assay type in all cases: cell-based
[1] = test system: MDA-MB231 (triple-negative breast cancer); assay: IC50 against tumor cell line MDA-MB231, CellTiter-Glo cell viability; settings: MDA-MB231 cells, 96 hours, mean ± standard deviation of triplicate
Method: (§1) Example 11: evaluation of the therapeutic efficacy of the compounds of the invention.
(§2) Tests were carried out to determine the inhibitory concentration (IC50) of the compounds of the invention against tumor cell lines and on a control cell line; for comparison, the same tests were carried out with the cisplatin compound.
(§3) The cell lines tested were: A2780 and A2780cis, (ovarian cancer), MDA-MB231 (triple-negative breast cancer) and DLD1 (colon cancer) and MRC-5 (control; lung fibroblasts).
(§4) The stock solutions were obtained in dimethyl sulfoxide for compounds I-X and in H^20 for cisplatin.
(§5) The cells were kept, in accordance with the protocols indicated by the suppliers, at 37° C. in an atmosphere containing 5% carbon dioxide. About 500 cells were plated on 96 different wells and kept under such conditions for 96 hours.
(§6) Cell viability was determined, after treatment of the cells with a 1:1 solution of CellTiter-Glo® (registered trademark of Promega Corp., Madison, Wisconsin, USA) and DPBS, with the Tecan Infinite® M1000 instrument. IC50 values were calculated from dose response curves. The means and standard deviations were obtained from tripled measurements.

[2] = test system: A2780cis (ovarian cancer); assay: IC50 against tumor cell line A2780cis, CellTiter-Glo cell viability
Method: as §1, §2, §3, §4, §5, §6

[3] = test system: MRC-5 (control; lung fibroblasts); assay: IC50 on control cell line MRC-5, CellTiter-Glo cell viability; settings: MRC-5 normal cells
Method: as §1, §2, §3, §4, §5, §6

[4] = test system: DLD1 (colon cancer); assay: IC50 against tumor cell line DLD1, CellTiter-Glo cell viability; settings: DLD1 cells, 96 hours, mean ± standard deviation of triplicate
Method: as §1, §2, §3, §4, §5, §6

[5] = test system: A2780 (ovarian cancer); assay: IC50 against tumor cell line A2780, CellTiter-Glo cell viability; settings: A2780 cells, 96 hours, mean ± standard deviation of triplicate
Method: as §1, §2, §3, §4, §5, §6

Row | Compound | IC50 [1] [µM] | IC50 ([2]; A2780cis cells, 96 hours, mean ± standard deviation of triplicate, read-out: IC50 (μM) A2780 cis) [µM] | IC50 ([3]; 96 hours, mean ± standard deviation of triplicate) [µM] | IC50 [4] [µM] | IC50 [5] [µM] | loss of activity between the two lines (A2780 to A2780cis) ([2]; A2780 vs A2780cis) | activity against normal cells (MRC-5), in words [3]
1 | N.N.[Cl][Pt][Cl] [CISPLATIN, cis-diaminodichloroplatin (II)] | 37 ± 9 | 27 ± 5 | 8 ± 1 | 0.63 ± 0.08 | 0.4 ± 0.1 |  | 
2 | COC(=O)/C(C)=C(C(=O)OC)/C(C(=O)OC)=[C](/C(=O)OC)[Pd]1([Cl])[CH]2N(Cc3ccccc3)C=CN2CN2C=CN(Cc3ccccc3)[CH]21 (stereo not shown) [Compound VII] |  |  |  |  |  | ca. one order of magnitude | substantially inactive
